From patent publication US20180135010A1, “ISOLATION AND LONG-TERM CULTURING OF ESTROGEN RECEPTOR-POSITIVE HUMAN BREAST EPITHELIAL CELLS” (University of Copenhagen, priority 2015, published 2018)

Legend:
[1] = tested on: CD166^high-derived cells; experiment: Long-term growth / population doublings on passaging; type: cell-based, human; conditions: in the absence of RepSox (SB431542 alone)
Description: For growth experiments cultures initially seeded at 6400 cells/cm^2 and grown for fifteen days in primary culture in TGFβR2i or with SB431542 alone. Next, the cultures were trypsinized and seeded at 4000 cells/cm^2 in triplicate cultures, and subsequently passaged at the same density before the cultures reached confluency. Parallel cultures were stained to assess Ks20.8, ER and PR expression status. The number of cells was quantified manually using a counting chamber. […] Population doublings were calculated as n=3.32(log UCY—log 1)+X, where n=population doubling, UCY=cell yield, 1=inoculum number, X=population doubling rate of inoculum. To determine whether continuous TGFβR2i culture was needed to sustain ER and K8 expression, cells in the sixth passage were switched to FAD2 and the number of ER^pos cells (n=3×100) was compared to parallel TGFβR2i cultures at day three and five.

[2] = tested on: hTERT/shp16 transduced ER^pos HBEC; experiment: qRT-PCR of ESR and PGR after 7 days exposure to inhibitors; type: cell-based, human; conditions: RepSox alone versus combination with SB431542
Method: FIG. 12: PCR analysis of human estrogen receptor signaling. (a) Using a commercially available PCR array containing 84 genes involved in ER activation and its response, qRT-PCR was conducted with RNA samples of ER^pos HBEC with or without TGFβ[…]. Among them, 20 genes (some of which are labeled in the plot) were highly expressed in the presence of TGFβ[…]. […] The black line indicates no difference between samples, while the pink lines indicate a two-fold change in gene expression. Two biological replicates were run I qRT-PCT with duplicates of each. […] Bars indicate the fold difference of the relative gene expression and error bars represent SD of triplicates in qPCR.

[3] = tested on: CD166^high cells; experiment: Induction of ER, K8 and luminal genes by TGF-β signaling inhibitors (qPCR, Western blotting, staining); type: cell-based, human
Method: To test the specificity of the effect of TGFβ[…], in some experiments SB431542 alone or the double concentration of SB431542 was used instead of TGFβ[…] or RepSox was replaced by another TGF-β type I receptor activin receptor-like kinase ALKS inhibitor, SD208 (1 μM, Tocris Bioscience). The vehicle, dimethyl sulfoxide (Sigma Aldrich), was included in all experiments added in appropriate concentrations for control cultures. Gentamycin (50 μg/ml, Biological Industries) was added to the cultures for one week after sorting, otherwise antibiotics were not included. […] In order to quantify cDNA concentration represented by cycle threshold (Ct) values, Cts were determined at the initial period of exponential amplification in triplicates and the different PCR runs were adjusted by inter-run calibrators (Bio-Rad CFX manager 3.0). Each gene expression level was to the mean of four reference gene expressions (GAPDH, HPRT1, TBP, and TFRC). The qRT-PCR data were then visualized as a heatmap using the statistical programi R or as a bar graph using the values calculated by the 2^-ΔΔCt method (Livak et al., 2001). […] Whole cell lysates were prepared for extraction by incubation in RIPA lysis buffer for 30 min at 4° C. with protease inhibitor cocktail (P8340, Sigma) and phosphatase inhibitor cocktail (Sigma, P5726). Protein were separated by a 4 12% Novex® Bis-Tris pre-cast polyacrylamide gradient gel (Life technologies) and transferred to a PVDF membrane using iBlot® dry blotting system (Life technologies). Molecular weight was indicated by using a pre-stained protein ladder (SM0671, Fermentas). […] Secondary antibodies conjugated with horseradish peroxidase (DAKO) were incubated for one hour at room temperature. Western blots were visualized using enhanced chemiluminescence solution ([…] 32106, Thermo Scientific) and a chemi-luminescence imager (Amersham Image 600, GE Healthcare life sciences).

[4] = tested on: ER^pos cells; experiment: Proliferative response to estrogen without EGF; type: cell-based, human; conditions: early passage cultures, 10^−8 M β-estradiol versus vehicle, four days
Method: To test the proliferative response to estrogen, ER^pos cells in TGFβR2i culture were seeded in second passage with 4000 cells/cm^2 in TGFβR2i with 25 μM RepSox and without EGF, supplemented with estrogen (10^−8 M, β-estradiol, E2758, Sigma-Aldrich) and cultured for up to 13 days with medium change every other day. A primary culture from another biopsy (P959) was cultured 27 days in the presence of estrogen and without EGF before splitting. The cells were passaged at 4000 cells/cm^2 in triplicate cultures with estrogen or vehicle (96% ethanol). At day four the cultures were trypsinized and quantified using a counting chamber.

[5] = tested on: ER^pos cells; experiment: qRT-PCR of PGR and GREB1 after estrogen; type: cell-based, human; conditions: long-term exposure to estrogen
[6] = tested on: ER^pos cells; experiment: Response to estrogen on confluent fibroblast feeders; type: cell-based, human; conditions: on confluent fibroblast feeders in TGFβR2i, day eight
Method: To assess whether the response of ER^pos cells to estrogen was modulated by the presence of fibroblasts, second or third passage ER^pos cells, with or without omission of EGF in the previous passage, were plated at a density of 5600 cells/cm^2 on confluent fibroblast feeders in triplicate culture. The following day, the culture medium was switched to TGFβR2i with estrogen or vehicle. […] At day eight, the cultures were trypsinized and the total cell number was quantified. Whether a continuous lack of EGF influenced the response to estrogen was tested in a similar set-up, where EGF was omitted from the medium during the entire experimental period.

[7] = tested on: ER^pos cells; experiment: PR protein staining after estrogen; type: cell-based, human; conditions: 10^−8 M β-estradiol, absence of EGF
Method: Cryostat sections, smears of sorted cells and monolayer cultures were prepared and stained by immunoperoxidase or immunofluorescence as previously described (Petersen et al. 1988, Villadsen et al. 2007, Rønnov-Jessen et al. 1992). Cellular smears for ER staining were fixed in 10% formalin for 10 min, followed by 5 min in ice-cold methanol:acetone (1:1), and incubated over night with anti-ER (Sp1, 1:10) at 4° C., followed by incubation for 30 min with Alexa Fluor 568 goat-anti rabbit IgG (Invitrogen). […] Immunofluorescence and peroxidase stainings were evaluated, quantified and photographed using a laser-scanning microscope (LSM 510; Carl Zeiss Microlmaging, Inc.) and brightfield microscopes (Laborlux S or DM5500B, Leica), respectively. For quantification of ER, K8, K19 and p63, nuclei were counterstained with hematoxylin and counted in randomly selected fields using an ocular grid and given as the percentage of stained cells of a total of 1000 cells evaluated with a 25 times objective.
As an ultimate test for a physiologically relevant ER expression we decided to assess the effect of added cognate ligand, i. e. estrogen (β-estradiol). […] Early passage cultures were exposed to estrogen or vehicle, and after four days the cell number was quantified. […]

[8] = tested on: luminal cells; experiment: Screening assay for normal morphogenic behavior (co-culture on fibroblast feeder in BBMYAB); type: cell-based, human; conditions: E2 10^−8 M
Description: Within two weeks luminal cells grow up from single cells to form polarized structures, either comprising luminal cells only or luminal cells surrounded by a layer of myoepithelial cells, reminiscent of their organization in vivo.

[9] = tested on: ER and PR; experiment: Substitution of EGF with amphiregulin in the culture medium; type: cell-based; conditions: EGF substituted with amphiregulin

Cc1cccc(-c2[nH]ncc2-c2ccc3ncccc3n2)n1 [RepSox]
expansion on passaging [1]: could not be expanded beyond fourth passage
induction of ER or PR [2]: not as effective in inducing ER or PR as in combination with SB431542

NC(=O)c1ccc(-c2nc(-c3ccc4c(c3)OCO4)c(-c3ccccn3)[nH]2)cc1 [SB431542]
ER expression at the mRNA level ([3]; SB431542 alone in FAD2): capable of inducing increased expression of ER at the mRNA level
induction of K8 and ER ([3]; twice the concentration of SB431542 instead of TGFβR2i): insufficient to induce K8 and ER

Fc1ccc(Cl)cc1-c1nc(Nc2ccncc2)c2nccnc2n1 [SD208]
induction of K8 and ER ([3]; RepSox replaced by SD208): insufficient to induce K8 and ER

β-estradiol [estrogen]
cell number [4]: significantly higher cell numbers
expression of PGR and GREB1 [5]: increased expression of PGR and GREB1
cell number [6]: significant increase in cell number
PR protein expression [7]: higher focal expression of PR protein
epithelial colony size [8]: larger epithelial colonied are formed
estrogen receptor and progesterone receptor expression [8]: down-regulation of its receptor and induction of the downstream progesterone receptor

B1: amphiregulin: EGF-like compound substituted for EGF in the culture medium (protein, UniProt P15514 101-187, looked up)
Amphiregulin: SVRVEQVVKPPQNKTESENTSDKPKRKKKGGKNGKNRRNRKKKNPCNAEFQNFCIHGECKYIEHLEAVTCKCQQEYFGERCGEKSMK
modifications: Amphiregulin
notes: EGF-like compound substituted for EGF in the culture medium
level of ER and PR [9]: a higher level of ER and PR is observed
